The values that follow come from patent US12295997B2, “Prostate neoantigens and their uses” (Janssen Biotech, Inc., priority 2020, dated 2025).

Assay [1] has as its system CD8+ T cells in PBMCs from human patients with metastatic castrate-resistant prostate cancer. Nature of the assay: Patient PBMC restimulation assay (in vitro immunogenicity, TNFα/IFNγ intracellular flow cytometry). The settings on record: 9-mer peptide; for Maximum fold change over negative control: TNFα+IFNγ+CD8+ T cells, highest across PBMC donors evaluated; for Maximum frequency of TNFα^+IFNγ^+CD8^+ T cells (Percent): greatest frequency among all tested PBMC donors; for Immunogenic: patient PBMC restimulation. The assay is classed as cell-based. As to the method: PBMCs from human patients with metastatic castrate-resistant prostate cancer were thawed using media (RPMI 1640 supplemented with Glutamax, 10% HI FBS, and 1× Sodium Pyruvate). Cells were counted and plated in a 96 well round bottom microplate at a concentration of 250,000 viable cells per well. Lyophilized peptides were solubilized in 100% DMSO and diluted in media to 10 μg/mL. Neoantigen peptides were added in equal volume to PBMCs for a final concentration of 5 μg/mL. CEF Peptide Pool “Plus” (Cellular Technologies, Ltd.) was utilized as a positive control and DMSO at the same final concentration as the experimental peptides was utilized as a negative control. Human IL-15 (Peprotech) was added to all wells at final concentration of 10 ng/mL.
Plates were incubated at 37° C. (5% CO2) for a total of 13 days. Media was refreshed every 2 days with IL-15 (10 ng/mL final concentration) and IL-2 (R&D systems, 10 IU/mL final concentration). On day 12, PBMCs were re-stimulated with identical experimental peptides or controls, at same concentration as peptide stimulation on Day 1. After 1-hour incubation, protein Inhibitor Cocktail (eBioscience) was added to every well and plate was incubated overnight.
On day 13, cells were stained for intracellular flow cytometry analysis. The cells were washed with PBS and stained with Live/Dead Fixable Aqua Dead Cell stain (Thermo-Fisher). Following the live/dead stain, cells were blocked using Biotin-Free Fc Receptor Blocker (Accurate Chemical & Scientific Corp). Extracellular cellular flow panel ([…] per well in 50 μL) consisted of CD3 PerCP-Cy5.5 (Biolegend), CD4 BV421 (Biolegend), and CD8 APC-Cy7 (Biolegend). After extracellular staining, cells were fixed using Foxp3/fTranscription Factor Staining Buffer Set (eBioscience) and stained for intracellular proteins (1:50 dilution) using TNFα FITC (R&D Systems) and IFNγ BV785 (Biolegend). Cells were washed and resuspended in stain buffer and analyzed using a BD Celesta flow cytometer.
Flow cytometry cell staining analysis was completed using FlowJo v10. Cells were gated on live, singlet, CD3+ cells. The CD8+ T cells were analyzed for TNFα/IFNγ expression and the frequency of double positive TNFα/IFNγ CD8+ T cells was recorded. Responses were assessed to be positive when the frequency of double positive TNFα/IFNγ CD8+ T cells due to stimulation with an experimental peptide was increased greater than or equal to 2-fold over the DMSO only negative control for that patient. Peptides were analyzed in 1 to 7 patient samples.
The 9 mer fragments shown in Table 13 were assessed for their ability to activate T cells using the Patient PBMC restimulation assay described in Example 1 using TNFα and IFNγ production by CD8^+ T cells as a readout. Self-antigens shown in Table 15 were also used in the assays. […] PBMCs from ten patients were evaluated.
On the technique in general: A flow cytometer gives signals particle by particle.

Assay [2] deals with HLA-A*03:01 (Homo sapiens, UniProt P04439). Nature of the assay: In vitro binding of neoantigens to class I MHC (UV peptide exchange, HLA class I ELISA). The following applies: 100% = same binding as positive control peptide. As for the experimental part: The 9 mer peptides identified by bioinformatics analysis were analyzed for their binding propensities to 6 common HLA class I alleles (HLA-A*01:01, A*02:01, A*03:01, A*24:02, B*07:02, B*08:01). The principle of the method is briefly described below and consists of two parts, one involving exchange of peptide with a positive control induced by Ultraviolet (UV) radiation, and the second is an enzyme immunoassay to detect stable HLA-peptide and empty HLA complexes.
HLA-bound peptides are critical for the stability of the HLA complex. A conditional HLA class I complex was stabilized by an UV-labile peptide utilizing a different peptide (Pos) for each HLA (Pos: HLA-A*01:01: […](SEQ ID NO: 409), HLA-A*02:01: […] (SEQ ID NO: 410), HLA-A*03:01: […] (SEQ ID NO: 411), HLA-A*24:02: […] (SEQ ID NO: 412), HLA-B*07:02: […] (SEQ ID NO: 413), HLA-B*08:01: […] (SEQ ID NO: 414), which could be cleaved by UV irradiation when bound to the HLA molecule. Upon cleavage, the resulting peptide fragments dissociated from the HLA class I complex since their length was insufficient to bind stably to HLA. Under the conditions in which peptide cleavage was performed (neutral pH, on melting ice), the peptide-free HLA complex remained stable.
The exchange efficiency between the peptide of interest and Pos was analyzed using an HLA class I ELISA. The combined technologies allowed the identification of ligands for an HLA molecule of interest which are potentially immunogenic.
Exchange control peptide Pos was a high affinity binder to the relevant HLA class I allele while exchange control peptide Neg was a non-binder. The UV control represented UV-irradiation of conditional HLA class I complex in the absence of a rescue peptide.
The HLA class I ELISA is an enzyme immunoassay based on the detection of beta2-microglobulin (B2M) of (peptide-stabilized) HLA class I complexes. To this end streptavidin was bound onto polystyrene microtiter wells. After washing and blocking, HLA complex present in exchange reaction mixtures or ELISA controls was captured by the streptavidin on the microtiter plate via its biotinylated heavy chain. Non-bound material was removed by washing. Subsequently, horseradish peroxidase (HRP)-conjugated antibody to human B2M was added. The HRP-conjugated antibody binds only to an intact HLA complex present in the microtiter well because unsuccessful peptide exchange results in disintegration of the original UV-sensitive HLA complex upon UV illumination. In the latter case B2M was removed during the washing step. After removal of non-bound HRP conjugate by washing, a substrate solution was added to the wells. A coloured product formed in proportion to the amount of intact HLA complex present in the samples. After the reaction was terminated by the addition of a stop solution, absorbance was measured in a microtiter plate reader. The absorbance was normalized to the absorbance of an exchange control peptide (represents 100%). Suboptimal HLA binding of peptides with a moderate to low affinity for HLA class I molecules can also be detected by this ELISA technique (Rodenko, B et al. (2006) Nature Protocols 1: 1120-32).
Peptides that had 10% or greater exchange efficiency in one of the 6 HLA alleles were considered for further immunogenicity testing and analysis.
Binding of select neoepitopes to HLA-A*01:01, HLA-A*02:01, HLA-A*03:01, HLAA*24:02, HLAAB*07:02 and HLA-B*08:01 was evaluated using the assay described in Example 1. […] As a criterion for further evaluation, peptides with an exchange rate of at least 10% with the corresponding Pos peptide for at least one of the 6 HLA alleles that we considered for further evaluation. The exchange rates with the allele specific Pos peptides, of the 24 neoantigens so identified are summarized below in Table 17. Higher percentages correspond to stronger binding to the HLA allele.
On the technique in general: In an ELISA, binding on a coated surface is turned into a signal by an enzyme label.

Take “P98: neoantigen 9 mer fragment used for PBMC stimulation (FIG. 5D) (IVWWCPMSR; listed as Homo sapiens) [Neoantigen P98]”: in assay [1], the “Maximum fold change over negative control” value (“Maximum fold change” below) is 14.93, the “Maximum frequency of TNFα^+IFNγ^+CD8^+ T cells (Percent)” value (“Maximum frequency … (Percent)” below) is given as 1.000% and the Immunogenic result is recorded as “Yes”. In addition, the “Exchange rate with allele specific Pos peptide, HLA-A*03:01” value (shortened to “Exchange rate”) in assay [2] amounted to 51.1%.
For “YEAGMTLGEKFRVGNCKHLKMTRP (listed as Homo sapiens) [Neoantigen P82]” the same measures were 3.46, 0.970%, “Yes” and 58.1%.
Take “P61 (MFENGCYLGRQKRFKCE; listed as Homo sapiens) [Peptide P61]”: in assay [1], the “Maximum frequency … (Percent)” value is on record as 0.084% and the Immunogenic entry is reported as “Yes”. Moreover, the “Exchange rate” value in assay [2] is 2.1%.
For “SLYHREKQLIAMDSAI (listed as Homo sapiens) [Neoantigen P22]” the same measures were 0.120%, “Yes” and 4.8%.
For “P58 (MMAEIISVHVPKILSGK; listed as Homo sapiens) [Peptide P58]” the same measures were 5.370%, “Yes” and 32.5%.
As for “YEAGMTLGGKILFFLFLLLPLSPFSLIF (listed as Homo sapiens) [Neoantigen P87]”, in assay [1], the “Maximum fold change” value was determined as 3.24, the “Maximum frequency … (Percent)” value is on record as 0.120% and the Immunogenic entry was “Yes”. Further, the “Exchange rate” value in assay [2] is on record as 2.4%.
For “P56 (PKSEVRAKCKFSILNAK; listed as Homo sapiens) [Peptide P56]” the same measures were 11.57, 1.620%, “Yes” and 6.8%.
As to “P73 (DSSGNLLERNSFEVRV; listed as Homo sapiens) [Peptide P73]”, in assay [1], the “Maximum fold change” value stood at 2.97, the “Maximum frequency … (Percent)” value turned out to be 0.110% and the Immunogenic entry is recorded as “Yes”. Besides, the “Exchange rate” value in assay [2] was determined as 3.5%.
For “P60 (CYLRRQKRLKCEKQPGA; listed as Homo sapiens) [Peptide P60]” the same measures were 2.08, 0.340%, “Yes” and 36.6%.
For “P97 (GYLRMQGLMAQRLLLR; listed as Homo sapiens) [Peptide P97]” the same measures were 4.55, 0.160%, “Yes” and 39%.
For “P46 (DDRNTFDIVWWCPMSRLRLALTVPPSTTTTCVTVPAWAA; listed as Homo sapiens) [Peptide P46]” the same measures were 2.33, 0.140%, “Yes” and 10.3%.

B1: P19 (peptide, listed as Homo sapiens)
chain: WTPIPVLTRWPLPHPPPWRRATSCRMARSSPSATSGSSVRRRCSSLPSWVWNLAASTRPRSTPS
In the case of B1, in assay [1], the “Maximum fold change” value was 5.00, the “Maximum frequency … (Percent)” value amounted to 0.480% and the Immunogenic result is “Yes”. The “Exchange rate” value in assay [2] was determined as 4.1%.
